Measurements as given in US20220395464A1, “ORALLY ADMINISTERED SOLID DOSAGE FORM DRUG” (ASCENTAWITS PHARMACEUTICALS, LTD., priority 2019, published 2022).
Values joined by “and” are separate entries in the source; they are usually repeats but may differ in a detail not shown here. Equal entries are not always repeated.

Columns and labels:
[1] = Stability in hepatomicrosome with NADPH (LC-MS/MS); format: in vitro ADME, human; settings: for % Remaining: human hepatomicrosome 0.5 mg/ml, NADPH 2 mM, 37° C., Sample 1, Sample 2
Protocol: The compounds, hepatomicrosome and reduced coenzyme NADPH were mixed together. Besides, a final concentration of the hepatomicrosome was 0.5 mg/ml, and human, male and mixed types of the hepatomicrosome were purchased. A final concentration of the NADPH was 2 mM. Next, the preceding mixtures were incubated in buffer (100 mM KH2PO4—K2HPO4) at 37° C. for 0, 5, 15, 30, 45, and 60 minutes, respectively. At the appointed incubation time, the reaction was terminated by the addition of an internal standard solution. Finally, the samples were centrifuged and the supernatant was taken for detection by LC-MS/MS.
Through mass spectrometry analysis, a concentration of the compounds in each sample was expressed by a peak-area ratio (a ratio of the peak-area of the compound to a peak-area of the internal standard). Then, each remaining percentage of the compounds (% Remaining) at each appointed incubation time was calculated with a reference that 0 minute at each concentration of the compounds. In logarithm of the remaining percentage was fitted linearly with the appointed incubation times, and a half-life and an intrinsic clearance were calculated according to the following formulas.
The remaining percentage (% Remaining)=(a peak area ratio at a certain appointed time (PARappointed time)/a peak area ratio at 0 minute (PAR0-mm)×100 (PAR: peak area ratio)
The elimination rate constant (k)=a negative of a slope (-gradient)
In vitro clearance (CLint, in vitro) (ml/min/mg)=k/c (c: a concentration of hepatomicrosome in the incubation system)

[2] = Pharmacokinetics after single intravenous drip infusion, plasma LC-MS/MS; format: in vivo, Philippine macaques; settings: individual animals 101, 102, 103; for Plasma-drug concentration: AST-3424 intravenous drip infusion 0.58 mg/kg
Protocol: AST-3424 and AST-3424-D6 (i.e. the compound of formula I) were administered to Philippine macaques by intravenous drip infusion, and blood samples were collected at different appointed times. LC-MS/MS was used to determine concentrations of the test substances in plasma of the Philippine macaques after administration, and relevant pharmacokinetic parameters were calculated.
Preparation method: 0.447 ml of AST-3424 (0.2 mg/ml) and 0.481 ml of AST-3424-D6 (0.2 mg/ml) were added into 104.272 ml of the dissolvent, respectively, and mixed for 5 minutes to obtain colorless and clarified solutions with pH 7.0.
The four male Philippine macaques were purchased from Guangxi Xiongsen Primate Development Experiment Co., Ltd. All Philippine macaques were healthy with qualified medical examination and no abnormality. Three of animals were used for the experiment, and one of them was used to prepare blank plasma.
About 0.8 ml of blood samples were collected through femoral vein and anticoagulated with heparin sodium. Appointed times of blood collection were before administration, 0.17, 0.25, 0.5, 0.75, 1, 2, and 4 hours after administration.
The blood samples were placed on ice after collection. Next, plasma samples were separated by centrifugation, and centrifugation conditions were 3500 rpm for 10 minutes at 4° C. Then, the collected plasma samples were stored at −80° C. until analysis. The plasma samples were analyzed by LC-MS/MS by an analysis department of an experimental institution. Besides, Lower limit of quantifications (LLOQ) of AST-3424 and AST-3424-D6 detection were 1 ng/ml. The accuracy of analysis results of an accompanying standard curve and a quality control samples all met the relevant requirements of biological analysis (the accuracy of the quality control samples exceeding 66.7% was between 85˜115%) in a process of the sample detection.
According to average blood concentration data of each group at each appointed time, the pharmacokinetic parameters of the compounds were respectively computed by a pharmacokinetic computing software, a non-compartmental model. In addition, the pharmacokinetic parameters were AUC0-t, AUC0-∞, MRT0-∞, Cmax, Tmax, t1/2, etc. In the case of the concentrations of the samples whose concentration being lower than a lower limit of quantification, the following schemes were used to compute the pharmacokinetic parameters. The samples sampled before reaching Cmax shall be computed as zero value, while the samples sampled after reaching Cmax shall be computed as non-quantifiable (marked as “BLQ”).
After a single intravenous infusion of the compounds AST-3424 and AST-3424-D6 was administered to the Philippine macaques, the whole blood samples of the corresponding animals were collected at the appointed times. Next, the whole blood samples were processed and biologically analyzed to obtain concentrations of the compounds in the plasma at the different appointed times. Results of the assay were listed in Table 14 below, and corresponding means of the plasma-drug concentration-time curves are shown in FIG. 3.
According to the plasma-drug concentration data of each drug group, the pharmacokinetic parameters of each compound group were computed using the non-compartmental model of the pharmacokinetic computing software. The pharmacokinetic

[3] = AST-3424 0.58 mg/kg single intravenous infusion, plasma, 0.58 mg/kg

C[C@H](OP(=O)(N1CC1)N1CC1)c1ccc([N+](=O)[O-])c(Oc2cccc(C(=O)N(C)C)c2)c1 [AST-3424, (S)-1-(3-(3-N,N-Dimethylaminocarbonyl)phenoxy-4-nitrophenyl)-1-ethyl-N,N′-bis(ethylene) phosphoramidate]
Stability parameter k (elimination rate constant) ([1]; human hepatomicrosome): 0.0606 min⁻¹ | % Remaining ([1]; 0 minutes): 101.36% and 98.64% | % Remaining ([1]; 5 minutes): 77.67% and 80.00% | % Remaining ([1]; 15 minutes): 45.83% and 47.38% | % Remaining ([1]; 30 minutes): 17.86% and 16.93% | % Remaining ([1]; 45 minutes): 6.52% and 6.95% | % Remaining ([1]; 60 minutes): 2.64% and 2.68% | % Remaining, Average ([1]; human hepatomicrosome, 0 minutes): 100.00% | % Remaining, Average ([1]; human hepatomicrosome, 5 minutes): 78.83% | % Remaining, Average ([1]; human hepatomicrosome, 15 minutes): 46.60% | % Remaining, Average ([1]; human hepatomicrosome, 30 minutes): 17.40% | % Remaining, Average ([1]; human hepatomicrosome, 45 minutes): 6.74% | % Remaining, Average ([1]; human hepatomicrosome, 60 minutes): 2.66% | half-life ([1]; male, liver microsomes (hepatomicrosome), human hepatomicrosome, read-out: Stability parameter (t1/2)): 11.4 min | AUC(0−t) [2, 3]: 430.42 ng·h/mL and 474.63 ng·h/mL | AUC(0−∞) [2, 3]: 430.76 ng·h/mL and 475.04 ng·h/mL | Cl [2, 3]: 22.4412 mL/min/kg and 20.3492 mL/min/kg | Cmax [2, 3]: 677.40 ng/mL and 800.80 ng/mL | MRT(0−t) [2, 3]: 11.4 min | MRT(0−∞) [2, 3]: 11.4 min and 10.8 min | T1/2 [2, 3]: 10.8 min and 11.4 min | Tmax [2, 3]: 15 min and 30 min and 10.2 min | Vss [2, 3]: 0.26123 L/kg and 0.21373 L/kg | Vz [2, 3]: 0.35358 L/kg and 0.33343 L/kg | Plasma-drug concentration ([2]; 0.17 hr): 800.80 ng/mL and 685.96 ng/mL | Plasma-drug concentration ([2]; 0.25 hr): 729.91 ng/mL and 695.61 ng/mL | Plasma-drug concentration ([2]; 0.5 hr): 729.08 ng/mL and 679.80 ng/mL | Plasma-drug concentration ([2]; 0.75 hr): 157.68 ng/mL and 118.92 ng/mL | Plasma-drug concentration ([2]; 1 hr): 50.63 ng/mL and 31.86 ng/mL | Plasma-drug concentration ([2]; 2 hr, LLOQ 1 ng/ml): 1.51 ng/ ml and BLQ | Plasma-drug concentration ([2]; 4 hr, LLOQ 1 ng/ml): BLQ
